From EP4678638A1, “NEW E3 UBIQUITIN LIGASE LIGAND, PROTEIN DEGRADATION AGENT AND USE THEREOF” (priority 2023, dated 2024)
Like-named read-outs stand apart in the source and are kept apart here.

Key:
THP-1 = assay: CCK-8 proliferation, THP-1; assay type: cell-based; conditions: Homo sapiens, 72 hours, read-out: Inhibitory activity (IC50) on tumor cell proliferation, THP-1
Experimental: (§1) The tumor cells used herein were cultured in a cell culture medium listed in table A1 at 37°C in an incubator with 5% CO2. Prior to experimentation, all cell lines used were correctly identified by STR profiling, and tested negative for mycoplasma contamination using a mycoplasma detection kit through routine screenings. Table A1. Tumor cells and cell culture medium used in the present disclosure
(§2) IC50 values of the compounds of the present disclosure (including the compounds in Table 1, and compounds of examples) were measured using the Meilun Cell Counting Kit-8 kit from Dalian Meilun Biotech Co., Ltd. Assay details are as follows: tumor cells were seeded in a 96-well plate at a density listed in Table A2. After 24h, 100 µL of the inoculated cells were treated with 0.5µL of the compounds of the present disclosure (including the compounds in Tables 1 and 2, and compounds of examples) at 10 different successively decreasing concentrations (starting at the highest concentration of 10µM; 5-fold serial dilutions). After the cells were treated with the compounds of the present disclosure for a period of time, the cell viability detection reagent was added to the culture medium for cell viability assessment according to the instructions provided with the CCK-8 kit. […] The growth inhibition of the compounds of the present disclosure on cells was plotted by Prism Graphpad software, and the IC50 values of the compounds of the present disclosure were calculated therefrom. […] Seeding protocol and treatment time for tumor cells

BXPC-3 = assay: CCK-8 proliferation, BXPC-3; assay type: cell-based; conditions: Homo sapiens, 96 hours, read-out: Inhibitory activity (IC50) on tumor cell proliferation, BXPC-3
Experimental: as §1, §2

Jurkat = assay: CCK-8 proliferation, Jurkat; assay type: cell-based, Human; conditions: Homo sapiens; Table B10, compounds designed based on the IRAK4 inhibitors; Jurkat cells; read-out: Inhibitory activity (IC50, nM) on tumor cell proliferation, Jurkat
Procedure, shortened: (§3)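 CCK-8 viability readout; IC50 from growth-inhibition curve fitting. Cells plated, dosed 24h later with a 10-point series, top 10µM, 5-fold steps. Culture at 37°C, 5% CO2.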

H1299 = assay: CCK-8 proliferation, H1299; set-up: species or system Human; conditions: Homo sapiens, NCI-H1299; Table B10, compounds designed based on the IRAK4 inhibitors; H1299 cells; read-out: Inhibitory activity (IC50, nM) on tumor cell proliferation, H1299
Experimental: as §1, §2

SR = assay: CCK-8 proliferation, SR; assay type: cell-based, Human; conditions: Homo sapiens; Table B10, compounds designed based on the IRAK4 inhibitors; SR cells; read-out: Inhibitory activity (IC50, nM) on tumor cell proliferation, SR
Procedure, shortened: as §3

MGC-803 = assay: CCK-8 proliferation, MGC-803 (heads: MGC80-3, MGC803); assay type: cell-based, Human; conditions: Homo sapiens, MGC-803
Procedure, shortened: as §3

IRAK4 = target: T1, IRAK4 (Homo sapiens, UniProt Q9NWZ3); assay: Western blot degradation of IRAK4 (hPBMC); assay type: cell-based; conditions: Table D1
T1 construct: evaluate the effects of the compounds of the present disclosure on the expression of target proteins in cells; endogenous in cells; host or cells: hPBMC
T1 sequence (Q9NWZ3 1-460): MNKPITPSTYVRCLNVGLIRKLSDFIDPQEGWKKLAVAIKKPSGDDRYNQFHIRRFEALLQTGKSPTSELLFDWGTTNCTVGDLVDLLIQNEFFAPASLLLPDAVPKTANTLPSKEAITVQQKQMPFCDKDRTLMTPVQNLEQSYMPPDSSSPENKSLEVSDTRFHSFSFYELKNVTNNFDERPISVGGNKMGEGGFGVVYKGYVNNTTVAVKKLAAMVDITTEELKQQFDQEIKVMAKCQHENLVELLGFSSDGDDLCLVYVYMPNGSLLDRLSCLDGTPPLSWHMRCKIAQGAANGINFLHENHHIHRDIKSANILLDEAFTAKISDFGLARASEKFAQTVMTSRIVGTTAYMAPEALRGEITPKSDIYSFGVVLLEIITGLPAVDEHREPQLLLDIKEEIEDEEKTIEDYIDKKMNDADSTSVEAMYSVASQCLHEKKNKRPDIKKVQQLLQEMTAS
Procedure, shortened: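 Degradation is assessed by immunoblotting lysates of treated cells. Target bands are quantified by grayscale and normalised to an internal control, so degradation rate equals 100% minus % remaining.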

MM.1S = assay: CCK-8 proliferation, MM.1S; assay type: cell-based; conditions: Homo sapiens, MM1.S; Table B10, compounds designed based on the IRAK4 inhibitors; MM.1S cells; read-out: Inhibitory activity (IC50, nM) on tumor cell proliferation, MM.1S
Procedure, shortened: as §3

LNcap = assay: CCK-8 proliferation, LNcap; assay type: cell-based; conditions: Homo sapiens; Table B10, compounds designed based on the IRAK4 inhibitors; Lncap cells; read-out: Inhibitory activity (IC50, nM) on tumor cell proliferation, Lncap
Experimental: as §1, §2

SW620 = assay: CCK-8 proliferation, SW620; assay type: cell-based; conditions: Homo sapiens, SW-620; CCK-8; 96 hours; read-out: Inhibitory activity (IC50) on tumor cell proliferation, SW620
Procedure, shortened: as §3

CCRF-CEM = assay: CCK-8 proliferation, CCRF-CEM; assay type: cell-based, Human; conditions: Homo sapiens
Procedure, shortened: as §3

[1] = target: T2, human Cereblon WT GST-tagged protein (Homo sapiens, UniProt Q96SW2); assay: CRBN binding, HTRF (CEREBLON BINDING kit); conditions: Table II-1, CRBN binding, HTRF
T2 construct: purchased CISBIO 64BDCRBNPEH
Procedure, shortened: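 After 3 h at room temperature, emission at 665 and 620 nm was measured in a homogeneous time-resolved fluorescence format. Compounds competed with a Thalidomide-Re probe for GST-tagged wild-type human CRBN, which was labelled with a Eu anti-GST antibody.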

MV-4-11 = assay: CCK-8 proliferation, MV-4-11; assay type: cell-based, Human; conditions: Homo sapiens, MV4-11; Table B10, compounds designed based on the IRAK4 inhibitors; MV-4-11 cells; read-out: Inhibitory activity (IC50, nM) on tumor cell proliferation, MV-4-11
Procedure, shortened: as §3

[2] = Table B10, compounds designed based on the IRAK4 inhibitors, MGC803 cells, read-out: Inhibitory activity (IC50, nM) on tumor cell proliferation, MGC803
[3] = CCK-8, 72 hours, read-out: Inhibitory activity (IC50) on tumor cell proliferation, MGC80-3

T2 sequence (Q96SW2 whole entry): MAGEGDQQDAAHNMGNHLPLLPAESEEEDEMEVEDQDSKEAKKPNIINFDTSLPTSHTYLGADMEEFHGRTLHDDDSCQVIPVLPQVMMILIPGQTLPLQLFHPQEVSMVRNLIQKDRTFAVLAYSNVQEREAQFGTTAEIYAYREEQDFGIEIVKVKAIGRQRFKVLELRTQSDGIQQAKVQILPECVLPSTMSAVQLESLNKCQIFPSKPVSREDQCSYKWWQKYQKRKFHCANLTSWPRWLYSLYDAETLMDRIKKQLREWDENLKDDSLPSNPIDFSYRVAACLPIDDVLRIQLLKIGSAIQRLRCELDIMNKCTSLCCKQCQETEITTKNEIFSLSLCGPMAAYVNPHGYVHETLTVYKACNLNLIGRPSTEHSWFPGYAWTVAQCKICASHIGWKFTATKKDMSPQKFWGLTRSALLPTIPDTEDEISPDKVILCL

| Compound | IC50 (THP-1) [nM] | IC50 (BXPC-3) [nM] | IC50 (Jurkat) [nM] | IC50 (H1299) [nM] | IC50 (SR) [nM] | IC50 (MGC-803; [2]) [nM] | Degradation of substrate protein IRAK4 (substrate protein remaining %) (IRAK4) | IC50 (MM.1S) [nM] | IC50 (LNcap) [nM] | IC50 (SW620) [nM] | IC50 (MGC-803; [3]) [nM] | IC50 (CCRF-CEM; CCRF-CEM, CCK-8, 96 hours, read-out: Inhibitory activity (IC50) on tumor cell proliferation, CCRF-CEM) [nM] | IC50 [1] [nM] | IC50 (MV-4-11) [nM] | IC50 (CCRF-CEM; Table B10, compounds designed based on the IRAK4 inhibitors, CCRF-CEM cells, read-out: Inhibitory activity (IC50, nM) on tumor cell proliferation, CCRF-CEM) [nM] |
| --- | --- | --- | --- | --- | --- | --- | --- | --- | --- | --- | --- | --- | --- | --- | --- |
| Cc1ccc(-c2c(C)noc2C)cc1N(CC1CCN(Cc2cccc(N3CCC(=O)NC3=O)c2)CC1)c1ccc(C2(C#N)CC2)cc1 [GT-04842, 1-(4-((5-(3,5-dimethylisoxazol-4-yl)-2-methylphenyl)((1-(3-(2,4-dioxotetrahydropyrimidin-1(2H)-yl)benzyl)piperidin-4-yl)methyl)amino)phenyl)cyclopropane-1-carbonitrile] | 500 to 1000 | 500 to 1000 |  |  |  |  |  |  |  |  |  |  |  |  |  |
| O=C1CCC(Nc2cccc(CN3CCN(c4ccc(-n5cc(NC(=O)c6coc(-c7ccnc(NCC8CC8)c7)n6)c(C(F)F)n5)cc4)CC3)c2)C(=O)N1 (stereo not drawn) [GT-04969, 2-(2-((cyclopropylmethyl)amino)pyridin-4-yl)-N-(3-(difluoromethyl)-1-(4-(4-(3-((2,6-dioxopiperidin-3-yl)amino)benzyl)piperazin-1-yl)phenyl)-1H-pyrazol-4-yl)oxazole-4-carboxamide] |  |  | 100 to 500 | 100 to 500 | 100 to 500 | 100 to 500 | A (A is defined as 0% ≤ substrate protein remaining % ≤ 80%) | 100 to 500 |  |  |  |  |  |  |  |
| O=C1CCC(c2ccc(CN3CCN(c4ccc(-n5cc(NC(=O)c6coc(-c7ccnc(NCC(F)(F)F)c7)n6)c(C(F)F)n5)cc4)CC3)cc2)C(=O)N1 (stereo not drawn) [GT-04273, N-(3-(difluoromethyl)-1-(4-(4-(4-(2,6-dioxopiperidin-3-yl)benzyl)piperazin-1-yl)phenyl)-1H-pyrazol-4-yl)-2-(2-((2,2,2-trifluoroethyl)amino)pyridin-4-yl)oxazole-4-carboxamide] |  |  | 1 to 10 | 50 to 100 | 50 to 100 | 10 to 50 |  | 1 to 10 | 100 to 500 |  |  |  |  |  |  |
| Cc1ccc(-c2c(C)noc2C)cc1N(CC1CCN(Cc2ccc(C3CCC(=O)NC3=O)cc2)CC1)c1ccc(C2(C#N)CC2)cc1 (stereo not drawn) [GT-04839, 1-(4-((5-(3,5-dimethylisoxazol-4-yl)-2-methylphenyl)((1-(4-(2,6-dioxopiperidin-3-yl)benzyl)piperidin-4-yl)methyl)amino)phenyl)cyclopropane-1-carbonitrile] |  | 50 to 100 |  |  |  |  |  |  |  | 500 to 1000 | 500 to 1000 | 500 to 1000 |  |  |  |
| O=C1CCN(c2ccc(CN3CCN(c4ccc5c(c4)nc(NC(=O)c4cccc(C(F)(F)F)c4)n5[C@H]4CC[C@@H](CO)CC4)CC3)nc2)C(=O)N1 [GT-04986, N-(5-(4-((5-(2,4-dioxotetrahydropyrimidin-1(2H)-yl)pyridin-2-yl)methyl)piperazin-1-yl)-1-((1s,4s)-4-(hydroxymethyl)cyclohexyl) -1H-benzo[d]imidazol-2-yl)-3-(trifluoromethyl)benzamide] |  |  | 100 to 500 | 100 to 500 | 100 to 500 | 100 to 500 | A (A is defined as 0% ≤ substrate protein remaining % ≤ 80%) | 100 to 500 |  |  |  |  |  |  |  |
| Cc1ccc(-c2c(C)noc2C)cc1N(CC1CCN(Cc2ccc(C3CCC(=O)NC3=O)c(F)c2)CC1)c1ccc(C2(C#N)CC2)cc1 (stereo not drawn) [GT-04840, 1-(4-((5-(3,5-dimethylisoxazol-4-yl)-2-methylphenyl)((1-(4-(2,6-dioxopiperidin-3-yl)-3-fluorobenzyl)piperidin-4-yl)methyl)amino)phenyl)cyclopropane-1-carbonitrile] |  | 10 to 50 |  |  |  |  |  |  |  | 100 to 500 | 100 to 500 |  |  |  |  |
| O=C1CCC(c2ccc(CN3CCN(c4ccc5c(c4)nc(NC(=O)c4cccc(C(F)(F)F)c4)n5C4CCC(CO)CC4)CC3)cc2)C(=O)N1 (stereo not drawn) [GT-04981, N-(5-(4-(4-(2,6-dioxopiperidin-3-yl)benzyl)piperazin-1-yl)-1-((1s,4s)-4-(hydroxymethyl)cyclohexyl) -1H-benzo[d]imidazol-2-yl)-3-(trifluoromethyl)benzamide] |  |  | 500 to 1000 | 500 to 1000 | 100 to 500 | 500 to 1000 | A (A is defined as 0% ≤ substrate protein remaining % ≤ 80%) | 100 to 500 |  |  |  |  |  |  |  |
| CC[C@@H]1[C@H](F)C(=O)N[C@@H]1COc1nccc2cc(C(N)=O)c(OC)cc12 [PF06650833, reference compound] |  |  | > 10000 | 5000 to 10000 | 1000 to 5000 | 5000 to 10000 |  | > 10000 | > 10000 |  |  |  | > 10000 | 1000 to 5000 | 5000 to 10000 |
| O=C1CCN(c2ccc(CN3CCN(c4ccc(-n5cc(NC(=O)c6coc(-c7ccnc(NCC8CC8)c7)n6)c(C(F)F)n5)cc4)CC3)cn2)C(=O)N1 [GT-04970, 2-(2-((cyclopropylmethyl)amino)pyridin-4-yl)-N-(3-(difluoromethyl)-1-(4-(4-((6-(2,4-dioxotetrahydropyrimidin-1(2H)-yl)pyridin-3-yl)methyl)piperazin-1-yl)phenyl)-1H-pyrazol-4-yl)oxazole-4-carboxamide] |  |  | 100 to 500 | 100 to 500 | 50 to 100 | 50 to 100 | A (A is defined as 0% ≤ substrate protein remaining % ≤ 80%) | 50 to 100 |  |  |  |  |  |  |  |
| O=C1CCN(c2cccc(CN3CCN(c4ccc(-n5cc(NC(=O)c6coc(-c7ccnc(NCC8CC8)c7)n6)c(C(F)F)n5)cc4)CC3)c2)C(=O)N1 [GT-04968, 2-(2-((cyclopropylmethyl)amino)pyridin-4-yl)-N-(3-(difluoromethyl)-1-(4-(4-(3-(2,4-dioxotetrahydropyrimidin-1(2H)-yl)benzyl)piperazin-1-yl)phenyl)-1H-pyrazol-4-yl)oxazole-4-carboxamide] |  |  | 100 to 500 | 100 to 500 | 100 to 500 | 100 to 500 | A (A is defined as 0% ≤ substrate protein remaining % ≤ 80%) | 10 to 50 |  |  |  |  |  |  |  |
